Experimental data as given in patent US8562949B2, “Radiolabeled dihydrotetrabenazine derivatives and their use as imaging agents” (The Trustees of the University of Pennsylvania, priority 2006, dated 2013).
Where “and” joins values, the source holds several entries; their conditions need not be identical. Equal values may be shown once. Each block holds one molecule with its values, some of them ahead of it.

Experiments:
[1] = Biodistribution of [18F]6a and [18F]6b in normal mice (iv injection); assay type: in vivo, ICR mice
Method: While under isoflurane anesthesia, 0.15 mL of a 0.1% bovine serum albumin solution containing [^18F]tracers (10-20 μCi) were injected directly into the tail vein of ICR mice (22-25 g, male) The mice (n=3 for each time point) were sacrificed by cervical dislocation at indicated time points post injection. The organs of interest were removed and weighed, and the radioactivity was counted with an automatic gamma counter. The percentage dose per organ was calculated by a comparison of the tissue counts to suitably diluted aliquots of the injected material. Total activities of blood were calculated under the assumption that they were 7% of the total body weight. The % dose/g of samples was calculated by comparing the sample counts with the count of the diluted initial dose.

[2] = target: VMAT2 (Mus musculus, UniProt Q8BRU6); assay: Saturation binding of 18F ligands in mouse striatal homogenates; design: The basal forebrain regions of rat and mouse brains were then dissected; from tissue; host or cells: mouse striatal homogenate; mouse brain coronal sections; settings: estimated based on S.A.=2000 Ci/mmole
Chain of VMAT2 (Mus musculus, UniProt Q8BRU6) (Q8BRU6 whole entry): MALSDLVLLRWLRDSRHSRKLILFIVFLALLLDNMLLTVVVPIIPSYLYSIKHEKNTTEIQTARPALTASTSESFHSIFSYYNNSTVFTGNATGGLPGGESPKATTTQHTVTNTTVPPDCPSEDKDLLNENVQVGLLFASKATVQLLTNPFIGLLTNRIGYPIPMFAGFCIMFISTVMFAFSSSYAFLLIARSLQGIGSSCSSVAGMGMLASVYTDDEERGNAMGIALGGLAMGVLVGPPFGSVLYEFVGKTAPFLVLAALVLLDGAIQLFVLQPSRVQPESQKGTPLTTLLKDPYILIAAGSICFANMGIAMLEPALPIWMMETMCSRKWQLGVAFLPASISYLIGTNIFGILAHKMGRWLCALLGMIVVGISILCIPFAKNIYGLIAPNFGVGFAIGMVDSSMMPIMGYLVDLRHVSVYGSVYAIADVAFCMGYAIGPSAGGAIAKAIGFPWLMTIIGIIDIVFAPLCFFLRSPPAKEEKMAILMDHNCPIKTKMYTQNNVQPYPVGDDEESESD
Method: The basal forebrain regions of rat and mouse brains were then dissected. The tissue homogenates were prepared in 50 mM Hepes, pH 7.5 and 0.3 M sucrose. The specific binding of ^3H or ^18F ligands were determined following the procedures described (Scherman D, Raisman R, Ploska A, Agid Y., [^3H]Dihydrotetrabenazine, a new in vitro monoaminergic probe for human brain, J. Neurochem., 1988:50:1131-36). Total volume of reaction for the assay was 0.2 ml. […] In saturation experiments, increasing concentrations of labeled ligand […] in 50 μl buffer were incubated with 100 μl of homogenates (100-250 μg). Incubation was carried out routinely at room temperature for 90 min. The samples were then filtered through glass fiber filters No. 25 (Schleicher and Schuell, Keene, N.H.) and the bound radioactivity was determined for ^18F in a gamma counter (Packard 5000) with 70% efficiency. Filters containing bound ^3H ligand were dissolved in 7 ml Ecolite(+) overnight and the radioactivity was counted next day in the scintillation counter (Beckman) with 65% counting efficiency. […] Nonspecific binding was determined in the presence of 10 μM tetrabenazine. Both saturation and competition experiments were analyzed using the nonlinear least-square curve fitting program LIGAND. […]

[3] = Partition coefficient 1-octanol/phosphate buffer; assay type: physicochemical; settings: pH 7.4, 1-octanol and phosphate buffer
Method: Partition coefficients were measured by mixing the [^18F]tracer with 3 g each of 1-octanol and buffer (0.1 M phosphate, pH 7.4) in a test tube. The test tube was vortexed for 3 min at room temperature, followed by centrifugation for 5 min. Two weighed samples (0.5 g each) from the 1-octanol and buffer layers were counted in a well counter. The partition coefficient was determined by calculating the ratio of cpm/g of 1-octanol to that of buffer. Samples from the 1-octanol layer were re-partitioned until consistent partitions of coefficient values were obtained. Values are the mean±SEM of three independent experiments, each in duplicates.

[4] = target: VMAT2 (Rattus norvegicus, UniProt Q01827); assay: Competition for [3H](±)TBZ binding in rat striatal homogenates; design: The basal forebrain regions of rat and mouse brains were then dissected; from tissue; host or cells: rat striatum / basal forebrain homogenate; settings: [3H](±)-TBZ, Kd […] used for calculation
Chain of VMAT2 (Rattus norvegicus, UniProt Q01827) (Q01827 whole entry): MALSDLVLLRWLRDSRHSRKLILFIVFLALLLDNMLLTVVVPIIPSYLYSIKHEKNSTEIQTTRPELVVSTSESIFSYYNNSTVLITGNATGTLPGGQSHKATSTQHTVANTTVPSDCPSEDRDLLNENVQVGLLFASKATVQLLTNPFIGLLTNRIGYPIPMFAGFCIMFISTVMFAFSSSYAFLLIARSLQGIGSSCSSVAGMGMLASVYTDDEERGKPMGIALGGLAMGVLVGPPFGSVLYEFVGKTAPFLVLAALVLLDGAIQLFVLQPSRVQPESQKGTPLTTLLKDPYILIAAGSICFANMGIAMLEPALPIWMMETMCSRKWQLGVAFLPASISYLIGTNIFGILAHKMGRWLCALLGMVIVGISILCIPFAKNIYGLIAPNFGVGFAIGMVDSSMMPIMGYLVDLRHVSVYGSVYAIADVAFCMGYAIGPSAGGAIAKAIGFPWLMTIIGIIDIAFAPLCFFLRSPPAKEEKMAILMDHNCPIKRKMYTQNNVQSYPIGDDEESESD

- remaining in brain (brain washout) ([1]; 30 min p.i., normal mice): > 50%
- brain uptake ([1]; mice, iv, 2 min): 4.66 % ID/g
- ST/CB ratio ([1]; mice, iv, time not stated): 1.9
- Organ distribution Blood ([1]; normal mice, iv, 2 min): 2.68 ± 0.37 % dose/g
- Organ distribution Bone ([1]; normal mice, iv, 2 min): 2.07 ± 0.05 % dose/g
- Organ distribution Brain ([1]; normal mice, iv, 2 min): 4.66 % dose/g and 4.66 ± 0.78 % dose/g
- Organ distribution Heart ([1]; normal mice, iv, 2 min): 4.49 ± 0.85 % dose/g
- Organ distribution Kidney ([1]; normal mice, iv, 2 min): 10.7 ± 3.06 % dose/g
- Organ distribution Liver ([1]; normal mice, iv, 2 min): 18.2 ± 4.14 % dose/g
- Organ distribution Lung ([1]; normal mice, iv, 2 min): 5.83 ± 1.25 % dose/g
- Organ distribution Muscle ([1]; normal mice, iv, 2 min): 0.66 ± 0.10 % dose/g
- Organ distribution Skin ([1]; normal mice, iv, 2 min): 0.91 ± 0.10 % dose/g
- Organ distribution Spleen ([1]; normal mice, iv, 2 min): 8.11 ± 0.90 % dose/g
- Ratio (vs CB) Cortex ([1]; normal mice, iv, 2 min): 1.06
- Ratio (vs CB) Hippocampus ([1]; normal mice, iv, 2 min): 1.09
- Ratio (vs CB) Striatum ([1]; normal mice, iv, 2 min): 1.23
- Regional brain distribution Cerebellum (CB) ([1]; normal mice, iv, 2 min): 4.42 ± 0.74 % dose/g
- Regional brain distribution Cortex ([1]; normal mice, iv, 2 min): 4.70 ± 0.66 % dose/g
- Regional brain distribution Hippocampus ([1]; normal mice, iv, 2 min): 4.84 ± 0.72 % dose/g
- Regional brain distribution Striatum ([1]; normal mice, iv, 2 min): 5.46 ± 0.80 % dose/g
- Organ distribution Blood ([1]; normal mice, iv, 15 min): 2.05 ± 0.17 % dose/g
- Organ distribution Bone ([1]; normal mice, iv, 15 min): 2.40 ± 0.23 % dose/g
- Organ distribution Brain ([1]; normal mice, iv, 15 min): 2.10 ± 0.25 % dose/g
- Organ distribution Heart ([1]; normal mice, iv, 15 min): 1.99 ± 0.19 % dose/g
- Organ distribution Kidney ([1]; normal mice, iv, 15 min): 5.51 ± 1.55 % dose/g
- Organ distribution Liver ([1]; normal mice, iv, 15 min): 10.5 ± 1.48 % dose/g
- Organ distribution Lung ([1]; normal mice, iv, 15 min): 2.96 ± 0.30 % dose/g
- Organ distribution Muscle ([1]; normal mice, iv, 15 min): 1.01 ± 0.02 % dose/g
- Organ distribution Skin ([1]; normal mice, iv, 15 min): 1.19 ± 0.03 % dose/g
- Organ distribution Spleen ([1]; normal mice, iv, 15 min): 2.77 ± 0.33 % dose/g
- Ratio (vs CB) Cortex ([1]; normal mice, iv, 15 min): 0.92
- Ratio (vs CB) Hippocampus ([1]; normal mice, iv, 15 min): 1.18
- Ratio (vs CB) Striatum ([1]; normal mice, iv, 15 min): 1.91
- Regional brain distribution Cerebellum (CB) ([1]; normal mice, iv, 15 min): 1.97 ± 0.22 % dose/g
- Regional brain distribution Cortex ([1]; normal mice, iv, 15 min): 1.82 ± 0.19 % dose/g
- Regional brain distribution Hippocampus ([1]; normal mice, iv, 15 min): 2.33 ± 0.30 % dose/g
- Regional brain distribution Striatum ([1]; normal mice, iv, 15 min): 3.76 ± 0.51 % dose/g
- Organ distribution Blood ([1]; normal mice, iv, 30 min): 2.27 ± 0.11 % dose/g
- Organ distribution Bone ([1]; normal mice, iv, 30 min): 3.88 % dose/g and 3.88 ± 0.47 % dose/g
- Organ distribution Brain ([1]; normal mice, iv, 30 min): 2.09 ± 0.09 % dose/g
- Organ distribution Heart ([1]; normal mice, iv, 30 min): 2.14 ± 0.11 % dose/g
- Organ distribution Kidney ([1]; normal mice, iv, 30 min): 4.18 ± 0.33 % dose/g
- Organ distribution Liver ([1]; normal mice, iv, 30 min): 8.85 ± 1.34 % dose/g
- Organ distribution Lung ([1]; normal mice, iv, 30 min): 2.83 ± 0.25 % dose/g
- Organ distribution Muscle ([1]; normal mice, iv, 30 min): 1.52 ± 0.07 % dose/g
- Organ distribution Skin ([1]; normal mice, iv, 30 min): 1.72 ± 0.11 % dose/g
- Organ distribution Spleen ([1]; normal mice, iv, 30 min): 2.62 ± 0.20 % dose/g
- Ratio (vs CB) Cortex ([1]; normal mice, iv, 30 min): 1.00
- Ratio (vs CB) Hippocampus ([1]; normal mice, iv, 30 min): 1.03
- Ratio (vs CB) Striatum ([1]; normal mice, iv, 30 min): 1.71
- Regional brain distribution Cerebellum (CB) ([1]; normal mice, iv, 30 min): 1.97 ± 0.14 % dose/g
- Regional brain distribution Cortex ([1]; normal mice, iv, 30 min): 1.96 ± 0.14 % dose/g
- Regional brain distribution Hippocampus ([1]; normal mice, iv, 30 min): 2.02 ± 0.10 % dose/g
- Regional brain distribution Striatum ([1]; normal mice, iv, 30 min): 3.37 ± 0.06 % dose/g
- Organ distribution Blood ([1]; normal mice, iv, 1 hr): 1.75 ± 0.16 % dose/g
- Organ distribution Bone ([1]; normal mice, iv, 1 hr): 5.84 ± 1.42 % dose/g
- Organ distribution Brain ([1]; normal mice, iv, 1 hr): 1.51 ± 0.20 % dose/g
- Organ distribution Heart ([1]; normal mice, iv, 1 hr): 1.53 ± 0.15 % dose/g
- Organ distribution Kidney ([1]; normal mice, iv, 1 hr): 2.27 ± 0.39 % dose/g
- Organ distribution Liver ([1]; normal mice, iv, 1 hr): 3.88 ± 0.40 % dose/g
- Organ distribution Lung ([1]; normal mice, iv, 1 hr): 1.74 ± 0.04 % dose/g
- Organ distribution Muscle ([1]; normal mice, iv, 1 hr): 1.05 ± 0.03 % dose/g
- Organ distribution Skin ([1]; normal mice, iv, 1 hr): 1.23 ± 0.06 % dose/g
- Organ distribution Spleen ([1]; normal mice, iv, 1 hr): 1.56 ± 0.07 % dose/g
- Ratio (vs CB) Cortex ([1]; normal mice, iv, 1 hr): 1.12
- Ratio (vs CB) Hippocampus ([1]; normal mice, iv, 1 hr): 1.05
- Ratio (vs CB) Striatum ([1]; normal mice, iv, 1 hr): 1.71
- Regional brain distribution Cerebellum (CB) ([1]; normal mice, iv, 1 hr): 1.85 ± 0.20 % dose/g
- Regional brain distribution Cortex ([1]; normal mice, iv, 1 hr): 2.07 ± 0.42 % dose/g
- Regional brain distribution Hippocampus ([1]; normal mice, iv, 1 hr): 1.95 ± 0.49 % dose/g
- Regional brain distribution Striatum ([1]; normal mice, iv, 1 hr): 3.17 ± 0.79 % dose/g
- Organ distribution Blood ([1]; normal mice, iv, 2 hr): 1.38 ± 0.20 % dose/g
- Organ distribution Bone ([1]; normal mice, iv, 2 hr): 8.89 ± 0.75 % dose/g
- Organ distribution Brain ([1]; normal mice, iv, 2 hr): 1.13 ± 0.10 % dose/g
- Organ distribution Heart ([1]; normal mice, iv, 2 hr): 1.22 ± 0.13 % dose/g
- Organ distribution Kidney ([1]; normal mice, iv, 2 hr): 1.40 ± 0.30 % dose/g
- Organ distribution Liver ([1]; normal mice, iv, 2 hr): 3.36 ± 0.32 % dose/g
- Organ distribution Lung ([1]; normal mice, iv, 2 hr): 1.29 ± 0.19 % dose/g
- Organ distribution Muscle ([1]; normal mice, iv, 2 hr): 0.73 ± 0.13 % dose/g
- Organ distribution Skin ([1]; normal mice, iv, 2 hr): 0.85 ± 0.10 % dose/g
- Organ distribution Spleen ([1]; normal mice, iv, 2 hr): 1.06 ± 0.10 % dose/g
- Ratio (vs CB) Cortex ([1]; normal mice, iv, 2 hr): 0.81
- Ratio (vs CB) Hippocampus ([1]; normal mice, iv, 2 hr): 1.12
- Ratio (vs CB) Striatum ([1]; normal mice, iv, 2 hr): 1.28
- Regional brain distribution Cerebellum (CB) ([1]; normal mice, iv, 2 hr): 1.09 ± 0.03 % dose/g
- Regional brain distribution Cortex ([1]; normal mice, iv, 2 hr): 0.88 ± 0.21 % dose/g
- Regional brain distribution Hippocampus ([1]; normal mice, iv, 2 hr): 1.22 ± 0.18 % dose/g
- Regional brain distribution Striatum ([1]; normal mice, iv, 2 hr): 1.39 ± 0.03 % dose/g
- Kd [2]: 0.52 nM
- logD at 3 min [3]: 2.12
SMILES: COc1cc2c(cc1OCC[18F])CCN1CC(CC(C)C)C(O)CC21 (racemic) [[^18F]6a]

SMILES: COc1cc2c(cc1OCCCF)CCN1CC(CC(C)C)C(O)CC21 (single isomer, unassigned) [FP-(−)-DTBZ]
- Ki [4]: > 3000 nM
